Earlier results as cited in patent US20070071815A1 (priority 2004, published 2007).

## CN(CC(=O)O)C(=N)N [creatine, N-(aminoiminomethyl)-N-methylglycine]
  half-life of creatine in blood plasma: 1 to 1.5 h
